Results as given in patent US7410960B2, “Metal complexes and therapeutic uses thereof” (The University of Western Sydney, priority 2001, dated 2008).
Where “and” joins values, the source holds several entries; their conditions need not be identical. Equal entries are not always repeated. Where two headings read alike, the source gives them in different places.

Key:
KYSE 520 (esophagus) = assay: Growth inhibition IC50, KYSE 520 (esophagus) cell line; type: cell-based; details: value (standard deviation)
Method: (§1) When we compare the effect of changing the diamine from the non-chiral 1,2-diaminoethane (en) to the chiral ligands and 2S,3S-diaminobutane (2S,3S-bn) and 2R,3R-diaminobutane (2R,3R-bn) then the concentration inhibiting the exponential growth of cells to 50% is further reduction from 27.0 to 1.11 and 0.32 μM respectively.

A-427 (lung) = assay: Growth inhibition IC50, A-427 (lung) cell line; type: cell-based; details: value (standard deviation)
Method: as §1

LCLC-103H (lung) = assay: Growth inhibition IC50, LCLC-103H (lung) cell line; type: cell-based; details: value (standard deviation)
Method: as §1

5637 (bladder) = assay: Growth inhibition IC50, 5637 (bladder) cell line; type: cell-based; details: value (standard deviation)
Method: as §1

[1] = tested on: L1210 mouse leukaemia cells; assay: CC growth inhibition assay, L1210; type: cell-based; details: Test CC, 40 μM highest dose tested
Description: (§2) The data presented in Table3 is the results collected from the growth inhibition studies of selected compounds with the following cell lines: L1210 (mouse leukaemia cells), 2008 (human ovarian carcinoma cells), L1210/DDP and C13*5 (acquired cisplatin resistance) and SKOV-3 (intrinsic cisplatin resistance).

[2] = tested on: L1210/DDP cisplatin-resistant cells; assay: CC growth inhibition assay, L1210/DDP; type: cell-based, mouse; details: Test CC, 40 μM highest dose tested
Description: as §2

[3] = tested on: C13*5 cisplatin-resistant cells; assay: Sulphorhodamine B (SRB) growth inhibition assay, C13; type: cell-based, human; details: Test SRB, acquired cisplatin resistance
Description: as §2

[4] = tested on: 2008 human ovarian carcinoma cells; assay: Sulphorhodamine B (SRB) growth inhibition assay, 2008; type: cell-based; details: Test SRB
Description: as §2

[5] = tested on: SKOV-3 cells (intrinsically resistant to cisplatin); assay: Sulphorhodamine B (SRB) growth inhibition assay, SKOV-3; type: cell-based; details: Test SRB, intrinsic cisplatin resistance
Description: as §2

[6] = first run, read-out: IC50 5637 (bladder)
[7] = repeat run, read-out: IC50 5637 (bladder) Repeat
[8] = listed as [Pt(R,R-bn)(phen)]Cl2
[9] = listed as [Pt(S,S-bn)(phen)]Cl2
[10] = listed as [Pt(R,R-dach)(phen)](ClO4)2
[11] = listed as [Pt(S,S-dach)(phen)](ClO4)2

Compound	IC50 (KYSE 520 (esophagus)) [µM]	IC50 (A-427 (lung)) [µM]	IC50 (LCLC-103H (lung)) [µM]	IC50 (5637 (bladder); [6]) [µM]	IC50 (5637 (bladder); [7]) [µM]	other results
N.N.[Cl][Pt][Cl] [CDDP, cis-diamminedichloroplatinum (II), reference compound]	6.63	4.46	1.44	0.88	0.43	–
CC(N)C(C)N.[Cl-].[Cl-].[Pt+2].c1cnc2c(c1)ccc1cccnc12 [[Pt(2R,3R-bn)(phen)]Cl2] [(2R,3R-butanediamine)(1,10-phenanthroline)platinum(II) cation]	0.67	0.54	0.78	0.32	0.43	IC50 [1, 8]: 1.5 µM; IC50 [2, 8]: 2.5 µM and 1.9 µM; IC50 [3, 8]: 5.2 µM and 9 µM and 7.4 µM
CC(N)C(C)N.[Cl-].[Cl-].[Pt+2].c1cnc2c(c1)ccc1cccnc12 [[Pt(2S,3S-bn)(phen)]Cl2] [(2S,3S-butanediamine)(1,10-phenanthroline)platinum(II) cation]	1.87	1.35	2.39	1.11	0.98	IC50 [1, 9]: 3.8 µM and 3 µM; IC50 [2, 9]: 5.3 µM and 8 µM; IC50 [4, 9]: 7.2 µM and 11 µM; IC50 [3, 9]: 26 µM and 22 µM and 28 µM; IC50 [5, 9]: 9.8 µM and 9.2 µM and 12 µM
NCCN.[Cl-].[Cl-].[Pt+2].c1cnc2c(c1)c1nccnc1c1cccnc12 [[Pt(en)(dpq)]Cl2]	19.4	16.4	23.6	16.7	–	–
[Cl-].[Cl-].c1cc2ccc3ccc[n+]4c3c2[n+](c1)[Pt-2]41[NH2+]CC[NH2+]1 [[Pt(en)(phen)]Cl2, reference compound]	49.1	24.1	41.2	27	23.7	–
CC(N)C(C)N.[Cl-].[Cl-].[Pt+2].c1cnc2c(c1)ccc1cccnc12 [[Pt(meso-2,3-bn)(phen)]Cl2] [(2S,3R-butanediamine)(1,10-phenanthroline)platinum(II) cation]	1.09	0.92	1.07	0.61	0.72	–
N[C@@H]1CCCC[C@H]1N.[O-][Cl+3]([O-])([O-])[O-].[O-][Cl+3]([O-])([O-])[O-].[Pt+2].c1cnc2c(c1)ccc1cccnc12 [[Pt(phen)(R,R-dach)](ClO4)2, (1R,2R-cyclohexanediamine)(1,10-phenanthroline)platinum(II) cation]	–	–	–	–	0.54	IC50 [1, 10]: 1.4 µM and 1.6 µM; IC50 [2, 10]: 4.3 µM and 4.5 µM; IC50 [4, 10]: 3.3 µM and 3.1 µM; IC50 [3, 10]: 5.1 µM and 9.2 µM; IC50 [5, 10]: 3.3 µM and 3.6 µM
N[C@H]1CCCC[C@@H]1N.[O-][Cl+3]([O-])([O-])[O-].[O-][Cl+3]([O-])([O-])[O-].[Pt+2].c1cnc2c(c1)ccc1cccnc12 [[Pt(phen)(S,S-dach)](ClO4)2, (1S,2S-cyclohexanediamine)(1,10-phenanthroline)platinum(II) cation]	–	–	–	–	0.15	IC50 [1]: 0.13 µM; IC50 [2]: 0.28 ± 0.09 µM; IC50 [4, 11]: 0.37 µM and 0.45 µM; IC50 [3, 11]: 0.56 µM and 0.88 µM; IC50 [5, 11]: 0.31 µM and 0.42 µM
(N,N′-dimethyl-1R,2R-cyclohexanediamine)(1,10-phenanthroline)platinum(II) cation [[Pt(phen)(Me2-R,R-dach)](ClO4)2]	–	–	–	–	23.6	–
(N,N′-dimethyl-1S,2S-cyclohexanediamine)(1,10-phenanthroline)platinum(II) cation [[Ptphen)(Me2-S,S-dach](ClO4)2]	–	–	–	–	55.6	IC50 ([1]; listed as [Pt(Me2—S,S-dach)(phen)](ClO4)2): 12 µM
